Tests used:
Assay type in all cases: in vivo, human
[1] = system: patients with major depressive disorder (MDD); test: Adverse events and discontinuations during double-blind treatment period, Clinical Study A; conditions: for TEAE: Akathisia / TEAE: Headache / TEAE: Insomnia / TEAE: Nausea / TEAE: Somnolence: N = 252; for Deaths: safety population; for Treatment-emergent adverse events (TEAEs): safety population N = 252
Protocol: (§1) A global, multicenter, randomized, double-blind (DB), placebo-controlled, parallel-group, fixed-dose study compared cariprazine 1.5 mg/day and cariprazine 3 mg/day with placebo as an adjunctive treatment to ongoing ADT in outpatients with a diagnosis of MDD (via the Diagnostic and Statistical Manual of Mental Disorders, Fifth Edition [DSM-5]) having an inadequate response, as measured by the modified Antidepressant Treatment Response Questionnaire (ATRQ), to 1 to 3 antidepressants administered during the current episode at an adequate dose and adequate duration. Adequate dose was defined as a dose above the minimum labeled dose (per package insert). Adequate duration was defined as continuous ADT treatment for at least 6 weeks, with a minimum of 3 of 6 weeks above the minimal dose.
(§2) The study consisted of up to 14 days screening (with up to an additional 7 days of needed) and washout of prohibited medications followed by 6 weeks of double-blind (DB) treatment followed by a 4-week safety follow-up. At the end of the screening period, patients meeting the entry criteria for the study were randomized (1:1:1) to 1 of 3 double-blind treatment groups. Study treatment groups were: cariprazine 1.5 mg/day+antidepressant therapy and cariprazine 3 mg/day+antidepressant therapy. The control group received matching placebo+antidepressant therapy.
(§3) Dosage/Dose Regimen: Investigational product (cariprazine or placebo) in the form of capsules packaged in blister packs will be provided. No investigational product was administered during the screening/washout period; patients continued the same antidepressant and dose they were on at screening. Patients were taking more than one antidepressant at screening, regardless of the indication, discontinued all other antidepressants prior to baseline (Visit 2). During the double-blind treatment period (6 weeks), patients were administered 1 capsule orally per day in addition to their ongoing ADT. Patients in the 1.5 mg/day+ADT arm were administered 1.5 mg+ADT starting at Visit 2 (Week 0). Patients in the 3 mg/day+ADT arm were administered 1.5 mg+ADT starting at Visit 2 (Week 0) for 2 weeks and then titrate to 3 mg/day+ADT starting at Visit 4 (Week 2). Patients were supplied with identically appearing capsules of either cariprazine 1.5 mg, cariprazine 3 mg, or placebo.
(§4) Following a screening period of up to 14 days (with up to an additional 7 days if needed), which included a washout of prohibited psychotropic medications except for ongoing ADT, patients with a partial response to their antidepressant monotherapy were randomized into three treatment groups (1:1:1). One group received cariprazine 1.5 mg/d+ADT, one received cariprazine 3.0 mg/d+ADT, and one group received placebo+ADT. All participants randomized to cariprazine began on 1.5 mg/d; cariprazine 1.5 mg/d patients remained at that dosage, while cariprazine 3.0 mg/d patients received 1.5 mg/d for 2 weeks and increased to 3.0 mg/d on day 15.
Table 15 summarizes the most frequent TEAEs occurring in ≥5% in any treatment group, and Table 16 summarizes changes in weight. An AE was considered a treatment-emergent adverse event (TEAE) if the AE began or worsened (increased in severity or became serious) on or after the first dose of double-blinded investigational product.

[2] = Weight changes, Clinical Study A
Protocol: as §1, §2, §3
A randomized, double-blind, placebo-controlled, multicenter trial with 759 participants was conducted in United States, Bulgaria, Estonia, Germany, Hungary, Ukraine, and the United Kingdom. […]

[3] = system: patients with major depressive disorder (MDD); test: Clinical Global Impressions-Improvement (CGI-I) score and response, Clinical Study A; conditions: for CGI-I response rate (score ≤2): LOCF; for CGI-I LS Mean (change from baseline to week 6) / LSMD vs placebo, CGI-I: MMRM
Protocol: as §1, §2, §3
as §4, with “A randomized, double-blind, placebo-controlled, multicenter trial with 759 participants was conducted in United States, Bulgaria, Estonia, Germany, Hungary, Ukraine, and the United Kingdom. Following” for “Following”
The primary and secondary efficacy parameters were change from baseline to week 6 in Montgomery-Åsberg Depression Rating Scale (MADRS) total score and Clinical Global Impressions-Severity (CGI-S) score, respectively (screening, baseline, and weeks 1, 2, 4, and 6). Additional efficacy parameters (screening, baseline, and ≥1 double-blind visit) included: MADRS response (≥50% MADRS total score reduction) and remission (MADRS total score ≤10); change from baseline in HAMD-17 total score and Hamilton Anxiety Rating Scale (HAM-A) total score (32); and Clinical Global Impressions-Improvement (CGI-I) score and response (CGI-I score ≤2). […]

[4] = 1.5 mg/day + ADT, double-blind period
[5] = 1.5 mg/day + ADT, randomized population N = 252
[6] = 3.0 mg/day + ADT, double-blind period
[7] = 3 mg/day + ADT, randomized population N = 253

## CN(C)C(=O)N[C@H]1CC[C@H](CCN2CCN(c3cccc(Cl)c3Cl)CC2)CC1 [Cariprazine, trans-N-{4-[2-[4-(2,3-dichlorophenyl)piperazin-1-yl]ethyl]cyclohexyl}-N′,N′-dimethylurea]
[1]; 1.5 mg/day + ADT
  TEAE: Akathisia: 13 (5.2) n (%)
  TEAE: Headache: 22 (8.7) n (%)
  TEAE: Insomnia: 18 (7.1) n (%)
  TEAE: Nausea: 20 (7.9) n (%)
  TEAE: Somnolence: 13 (5.2) n (%)
[1]; [4]
  Any Extrapyramidal Symptoms (EPS) TEAEs: 25 (9.9) n (%)
  Treatment-emergent Serious AE (TESAE): 1 (0.4) n (%)
  Deaths: 0 n (%)
  Treatment-emergent adverse events (TEAEs): 125 (49.6) n (%)
[1]; [5]
  Premature discontinuation due to Death: 0 n (%)
  Premature discontinuation due to Lack of Efficacy: 2 (0.8) n (%)
[1]; 3.0 mg/day + ADT
  TEAE: Akathisia: 20 (7.9) n (%)
  TEAE: Headache: 11 (4.4) n (%)
  TEAE: Insomnia: 16 (6.3) n (%)
  TEAE: Nausea: 16 (6.3) n (%)
  TEAE: Somnolence: 11 (4.4) n (%)
[1]; [6]
  Any Extrapyramidal Symptoms (EPS) TEAEs: 38 (15.1) n (%)
  TEAE leading to discontinuation from study: 18 (7.1) n (%)
  Treatment-emergent Serious AE (TESAE): 1 (0.4) n (%)
  Deaths: 0 n (%)
  Treatment-emergent adverse events (TEAEs): 124 (49.2) n (%)
[1]; [7]
  Premature discontinuation due to Adverse Event: 18 (7.1) n (%)
  Premature discontinuation due to Death: 0 n (%)
  Premature discontinuation due to Lack of Efficacy: 0 n (%)
[1]; six-week study period
  Most common adverse events occurring at ≥5% in the cariprazine groups: akathisia, nausea, insomnia, headache and somnolence
  Safety results (overall): no new safety signals identified
[2]; 1.5 mg + ADT, n = 252
  Weight change from baseline, mean (SD): 0.68 (2.5) kg
  Weight increase ≥7% from baseline: 10 (4.0) n (%)
[2]; 3 mg + ADT, n = 252
  Weight change from baseline, mean (SD): 0.78 (2.8) kg
[2]; all treatment groups
  Changes in weight at the end of treatment: < 1 kg
[3]; 1.5 mg/d + ADT, week 6
  CGI-I response rate (score ≤2): 51.2%
  CGI-I LS Mean (change from baseline to week 6): 2.6
  LSMD vs placebo, CGI-I: −0.3
[3]; 1.5 mg/day + ADT, week 1
  CGI-I responders (score ≤2): 29 (11.6) n (%)
  CGI-I response, odds ratio vs placebo (95% CI): 2.0 (1.0, 3.8)
[3]; 1.5 mg/day + ADT, week 2
  CGI-I responders (score ≤2): 67 (26.8) n (%)
  CGI-I response, odds ratio vs placebo (95% CI): 1.4 (0.9, 2.1)
[3]; 1.5 mg/day + ADT, week 4
  CGI-I responders (score ≤2): 115 (46.0) n (%)
  CGI-I response, odds ratio vs placebo (95% CI): 1.6 (1.1, 2.3)
[3]; 1.5 mg/day + ADT, week 6
  CGI-I responders (score ≤2): 128 (51.2) n (%)
[3]; 3.0 mg/d + ADT, week 6
  CGI-I response rate (score ≤2): 50.4%
[3]; 3 mg/d + ADT, week 6
  CGI-I LS Mean (change from baseline to week 6): 2.6
  LSMD vs placebo, CGI-I: −0.3
[3]; 3 mg/day + ADT, week 1
  CGI-I responders (score ≤2): 20 (7.9) n (%)
  CGI-I response, odds ratio vs placebo (95% CI): 1.3 (0.6, 2.6)
[3]; 3 mg/day + ADT, week 2
  CGI-I responders (score ≤2): 62 (24.6) n (%)
  CGI-I response, odds ratio vs placebo (95% CI): 1.2 (0.8, 1.9)
[3]; 3 mg/day + ADT, week 4
  CGI-I responders (score ≤2): 102 (40.5) n (%)
  CGI-I response, odds ratio vs placebo (95% CI): 1.3 (0.9, 1.8)
[3]; 3 mg/day + ADT, week 6
  CGI-I responders (score ≤2): 127 (50.4) n (%)

— US20240398787A1, “TREATMENT OF MAJOR DEPRESSIVE DISORDER” (AbbVie Inc., priority 2021, published 2024)
